In PubChem BioAssay AID720587 (Broad Institute, 2013) one finds activity change, negative = cytotoxicity data, which are given here for 29 compounds.

The test is described as follows: A673 Ewing sarcoma viability loss – cell-based, CellTiter-Glo luminescence, cherry-pick retest, confirmation (AID 720587). The conditions noted are these: A673 Ewing sarcoma viability, CellTiter-Glo ATP luminescence, 72 h. (In ATP-based viability assays light output follows the ATP content of the culture.)

SMILES strings stand for the structures. Active and inactive are the calls of the source.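 Rule for the calls: active = fitted curve reaches -35% activity change at a concentration below twice the top valid dose tested; inactive = the rest, including effects opposite to the expected direction.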

As for `C/C(=N\Nc1cccc2cccnc12)c1ccccn1`, the activity change, negative = cytotoxicity (at 26 µM (top of the series)) is -0.624% (inactive). In the case of `COC(=O)COc1ccc(-c2nccc(-c3ccccn3)n2)cc1`, the activity change, negative = cytotoxicity (at 26 µM (top of the series)) was 11.6% (inactive). For the compound `O=C(NCCc1ccccc1)c1ccccc1NC(=O)C1CCCO1` (centres undefined), the activity change, negative = cytotoxicity (at 26 µM (top of the series)) was 0.338% (inactive).

In the case of `COc1ccc(C(=O)CN2C(=O)c3ccccc3S2(=O)=O)cc1`, the activity change, negative = cytotoxicity (at 26 µM (top of the series)) was 1.43% (inactive). Same read-out and setting: the same measure for `Cc1cc(C)cc(OCC(=O)OCC(=O)Nc2cc(S(=O)(=O)N3CCOCC3)ccc2C)c1`: -2.43% (inactive). On to `Nc1ccc(Oc2ccccc2-c2ccccc2)cc1`, for which the activity change, negative = cytotoxicity (at 26 µM (top of the series)) was -6.58% (inactive). Still for that read-out and setting: then `Cc1ccccc1N=CC1=C(O)c2ccccc2C1=O`, with -6.09% (inactive).

On to `CN(C)C(=O)c1ccc(-c2ccccc2[C@@H]2[C@@H](CO)N(C(=O)C3CC3)[C@H]2C#N)cc1`, for which the activity change, negative = cytotoxicity (at 26 µM (top of the series)) is 0.679% (inactive). Turning to `O=C(/C=C/c1ccc(Cl)cc1Cl)N(Cc1ccc(Cl)cc1)C1CCS(=O)(=O)C1` (centres undefined), the activity change, negative = cytotoxicity (at 26 µM (top of the series)) is 2.8% (inactive). The same measure, in the same setting: then `COc1ccc(-c2sc3ccccc3c2-c2ccc(OCCN3CCCCC3)cc2)cc1`, with -3.21% (inactive); and `COC(=O)c1c(C)[nH]c(/C=N/Nc2ccccc2)c1C`, with 5.78% (inactive). On the same count and under the same terms, the same measure for `CN(C)C(=O)c1cccc(-c2ccc(C3[C@@H]4CN(Cc5nccs5)C[C@H]3N4)cc2)c1` (some centres undefined): -4.24% (inactive). The same measure, in the same setting: the same measure for `Cc1cc(C(=O)CN2C(=O)c3ccccc3S2(=O)=O)c(C)n1C(C)C`: 21.4% (inactive).

Consider `COC(=O)C[C@@H]1CC[C@@H]2[C@H](COc3ccc(NC(=O)c4cccc(Cl)c4)cc3C(=O)N2C)O1`, for which the activity change, negative = cytotoxicity (at 23.5 µM (top of the series)) was -7.39% (inactive). `Cc1ccc(C(=O)CN2C(=O)c3ccccc3S2(=O)=O)cc1`: the activity change, negative = cytotoxicity (at 26 µM (top of the series)) was 11.7% (inactive).

In the case of `COc1ccccc1NS(=O)(=O)c1cc(NC(=O)c2cc3ccccc3oc2=O)ccc1C`, under “at 26 µM (top of the series)”, the activity change, negative = cytotoxicity is 13% (inactive). The same measure, in the same setting: the same measure for `O=C(O)CN1C(=O)/C(=C\c2ccccc2OCc2ccc(Cl)cc2Cl)SC1=S`: -0.632% (inactive). The same measure, in the same setting: the same measure for `Cc1cc(C(=O)NNC(=O)c2ccc(S(=O)(=O)N(C)C)cc2)c(C)o1`: 1% (inactive); for `Cc1ccc(N=C2NC(=O)/C(=C\c3cccs3)S2)cc1C`: 1.74% (inactive). As to `C[C@@H]1CN([C@@H](C)CO)S(=O)(=O)c2ccc(C#CCN(C)C)cc2O[C@@H]1CN(C)Cc1ccncc1`, the activity change, negative = cytotoxicity (at 26 µM (top of the series)) was -10.8% (inactive).

For `CN(C(=O)COC(=O)c1cc(-c2ccccc2Cl)nc2ccccc12)C1CCS(=O)(=O)C1` (centres undefined), the activity change, negative = cytotoxicity (at 26 µM (top of the series)) is -1.76% (inactive). On the same count and under the same terms, the same measure for `COC(=O)C[C@@H]1CC[C@@H]2[C@H](COc3ccc(NC(=O)c4cc(F)cc(F)c4)cc3C(=O)N2C)O1`: -0.378% (inactive). Still for that read-out and setting: the same measure for `C[C@@H]1CN([C@@H](C)CO)S(=O)(=O)c2ccc(C#Cc3ccncc3)cc2O[C@H]1CN(C)C(=O)C1CCOCC1`: -7.5% (inactive). In the case of `O=C1CCC2S/C(=C/Nc3ccc(C(F)(F)F)cc3)C(=O)N12` (centres undefined), the activity change, negative = cytotoxicity (at 26 µM (top of the series)) is -2.74% (inactive). With `c1ccc(-c2ccc([C@H]3[C@H]4CNC[C@@H]3N4Cc3cc(-c4ccccc4)on3)cc2)cc1`, the activity change, negative = cytotoxicity (at 26 µM (top of the series)) is -11.9% (inactive). In the case of `O=C1Nc2ccccc2C1=Nc1ccc(Br)cc1`, the activity change, negative = cytotoxicity (at 26 µM (top of the series)) is -3.12% (inactive). In the case of `O=S(=O)(c1ccc(F)cc1)N1C[C@H]2[C@@H](c3ccccc31)[C@H](CO)N2Cc1ccccc1Cl`, the activity change, negative = cytotoxicity (at 23.5 µM (top of the series)) was -16.4% (inactive).

Regarding `COc1ccc(/C=C2\SC(=S)N(CCCC(=O)NC3CCCC3)C2=O)cc1OC`, the activity change, negative = cytotoxicity (at 26 µM (top of the series)) was -18.4% (inactive). On to `Cc1c(-c2nc(-c3ccc(C(C)(C)C)cc3)no2)n(C)oc1=O`, for which the activity change, negative = cytotoxicity (at 26 µM (top of the series)) is 2.17% (inactive).
